Measured values reported in EP1935986B1, “Luminogenic and fluorogenic compounds and methods to detect molecules or conditions” (priority 2005, dated 2006).

Legend:
[1] = test system: panel of recombinant human P450s; assay: Two-step luminescent P450 screen of luciferin derivatives, whole panel incl. HLM; assay type: biochemical; details: 50 µM substrate; result in words
Protocol: In addition, it was also of interest to identify substrates with improved selectivity for single P450 enzymes. […] Derivatives useful as P450 substrates may be employed in assays to detect inhibitors for particular P450 enzymes (see Figures 17-18).
P450s are Supersomes™ purchased from Discovery Labware (BD/Gentest). […] HLM is human liver microsomes.
1X substrate concentration: 50 µM.

[2] = biological target: T1, human recombinant monoamine oxidase B (MAO B) (Homo sapiens, UniProt P27338); assay: Two-step luminescent MAO assay with luciferin derivative; assay type: biochemical; details: fit of Tables 23-24 (TableCurve)
T1 construct: purchased Sigma Chemical Company M-7441; host or cells: baculovirus infected insect cells (microsomes)
T1 sequence (P27338 1-520): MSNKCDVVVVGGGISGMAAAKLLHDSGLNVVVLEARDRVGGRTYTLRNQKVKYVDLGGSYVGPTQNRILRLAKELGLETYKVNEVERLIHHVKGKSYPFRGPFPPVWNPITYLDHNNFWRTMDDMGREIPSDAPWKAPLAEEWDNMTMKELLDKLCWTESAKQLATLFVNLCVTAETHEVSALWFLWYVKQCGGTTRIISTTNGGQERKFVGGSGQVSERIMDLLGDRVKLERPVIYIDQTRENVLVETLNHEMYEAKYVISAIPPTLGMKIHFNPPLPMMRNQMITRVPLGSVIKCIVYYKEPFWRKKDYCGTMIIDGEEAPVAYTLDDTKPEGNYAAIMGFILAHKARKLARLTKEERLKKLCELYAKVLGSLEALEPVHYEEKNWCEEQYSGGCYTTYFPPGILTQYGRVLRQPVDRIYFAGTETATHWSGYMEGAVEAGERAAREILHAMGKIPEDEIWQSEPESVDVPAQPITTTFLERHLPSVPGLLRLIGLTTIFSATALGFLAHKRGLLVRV

[3] = biological target: T2, human recombinant monoamine oxidase A (MAO A) (Homo sapiens, UniProt P21397); assay: as above; details: for RLUmax: fit of Tables 23-24 (TableCurve)
T2 sequence (P21397 1-527): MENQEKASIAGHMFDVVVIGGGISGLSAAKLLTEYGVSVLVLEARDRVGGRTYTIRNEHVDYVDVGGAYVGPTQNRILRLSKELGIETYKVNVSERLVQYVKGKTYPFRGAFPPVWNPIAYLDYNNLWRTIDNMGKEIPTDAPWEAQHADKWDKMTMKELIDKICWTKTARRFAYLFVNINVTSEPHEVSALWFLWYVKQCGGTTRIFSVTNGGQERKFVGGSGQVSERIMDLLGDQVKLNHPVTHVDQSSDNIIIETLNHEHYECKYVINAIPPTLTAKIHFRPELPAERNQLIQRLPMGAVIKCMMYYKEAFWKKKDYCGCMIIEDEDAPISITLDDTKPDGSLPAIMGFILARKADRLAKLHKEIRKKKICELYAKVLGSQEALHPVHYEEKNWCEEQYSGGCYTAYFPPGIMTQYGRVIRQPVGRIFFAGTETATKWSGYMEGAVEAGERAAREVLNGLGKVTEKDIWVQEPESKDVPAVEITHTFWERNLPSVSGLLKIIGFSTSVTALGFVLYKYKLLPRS

QuantiLum Luciferase = biological target: T3, QuantiLum Luciferase (Photinus pyralis, UniProt P08659); assay: Scaffolds: light emission of luciferin derivatives with QuantiLum luciferase alone, + Co A, + DTT, + Co A and DTT; assay type: biochemical, firefly
T3 construct: purchased Promega Corporation E170

[4] = test system: human recombinant flavin-containing monooxygenase 3 (FMO 3); assay: Two-step luminescent FMO assay with luciferin derivative; assay type: biochemical
luciferase = assay: No-enzyme control: activity of luciferase towards the luciferin derivative (background luminescence); details: wild type microsomes instead of FMO 3

T3 sequence (P08659 whole entry): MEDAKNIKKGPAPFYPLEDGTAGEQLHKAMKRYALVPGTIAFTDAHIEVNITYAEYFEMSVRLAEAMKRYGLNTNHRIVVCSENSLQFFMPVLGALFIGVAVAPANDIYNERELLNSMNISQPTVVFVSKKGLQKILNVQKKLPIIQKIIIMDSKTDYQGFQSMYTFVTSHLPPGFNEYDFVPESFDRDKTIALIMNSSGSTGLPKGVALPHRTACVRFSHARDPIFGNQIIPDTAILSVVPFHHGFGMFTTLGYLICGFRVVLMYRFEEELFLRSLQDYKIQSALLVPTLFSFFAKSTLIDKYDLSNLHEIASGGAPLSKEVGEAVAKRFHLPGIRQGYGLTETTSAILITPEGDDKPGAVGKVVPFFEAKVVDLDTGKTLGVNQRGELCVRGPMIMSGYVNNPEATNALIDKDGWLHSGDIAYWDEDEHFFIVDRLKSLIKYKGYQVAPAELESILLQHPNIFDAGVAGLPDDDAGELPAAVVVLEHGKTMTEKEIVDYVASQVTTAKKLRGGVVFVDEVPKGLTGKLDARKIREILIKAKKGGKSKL

In the case of `Nc1ccc(Oc2ccc3nc(C4=N[C@@H](C(=O)O)CS4)ccc3c2)cc1` [6(p-aminophenyloxy)-quinolylluciferin], the “luminescent signals with the panel of P450 enzymes” value [1] is reported as “did not produce large luminescent signals with any P450”.

Compound `NCCCOc1ccc2nc(C3=N[C@@H](C(=O)O)CS3)sc2c1` [MAO-3, 6-Aminopropoxyluciferin] has an RLUmax [2] of 660, an RLUmax [3] of 210 and a light emission values (QuantiLum Luciferase; Derivative Conc. 1.07, Alone) of 94583. It also gave a light emission values (QuantiLum Luciferase; Derivative Conc. 1.07, Co A) of 122510, a light emission values (QuantiLum Luciferase; Derivative Conc. 1.07, Co A + DTT) of 52637 and a light emission values (QuantiLum Luciferase; Derivative Conc. 1.07, DTT) of 111682. It also gave a light emission values (QuantiLum Luciferase; Derivative Conc. 3.13, Alone) of 131633, a light emission values (QuantiLum Luciferase; Derivative Conc. 3.13, Co A) of 176814 and a light emission values (QuantiLum Luciferase; Derivative Conc. 3.13, Co A + DTT) of 171233. The light emission values (QuantiLum Luciferase; Derivative Conc. 3.13, DTT) was 200074, the light emission values (QuantiLum Luciferase; Derivative Conc. 6.25, Alone) was 201597 and the light emission values (QuantiLum Luciferase; Derivative Conc. 6.25, Co A) was 321914. The light emission values (QuantiLum Luciferase; Derivative Conc. 6.25, Co A + DTT) was 82531, the light emission values (QuantiLum Luciferase; Derivative Conc. 6.25, DTT) was 348398 and the light emission values (QuantiLum Luciferase; Derivative Conc. 12.5, Alone) was 252130. It also gave a light emission values (QuantiLum Luciferase; Derivative Conc. 12.5, Co A) of 467021, a light emission values (QuantiLum Luciferase; Derivative Conc. 12.5, Co A + DTT) of 509896 and a light emission values (QuantiLum Luciferase; Derivative Conc. 12.5, DTT) of 525765. It also gave a light emission values (QuantiLum Luciferase; Derivative Conc. 25, Alone) of 272608, a light emission values (QuantiLum Luciferase; Derivative Conc. 25, Co A) of 588881 and a light emission values (QuantiLum Luciferase; Derivative Conc. 25, DTT) of 733675. For the same compound, the light emission values (QuantiLum Luciferase; Derivative Conc. 50, Alone) was 179585, the light emission values (QuantiLum Luciferase; Derivative Conc. 50, Co A) was 444494 and the light emission values (QuantiLum Luciferase; Derivative Conc. 50, Co A + DTT) was 865209. For the same compound, the light emission values (QuantiLum Luciferase; Derivative Conc. 50, DTT) was 868903, the light emission values (QuantiLum Luciferase; Derivative Conc. 100, Alone) was 348013 and the light emission values (QuantiLum Luciferase; Derivative Conc. 100, Co A) was 741882. It also gave a light emission values (QuantiLum Luciferase; Derivative Conc. 100, Co A + DTT) of 1019425 and a light emission values (QuantiLum Luciferase; Derivative Conc. 100, DTT) of 994617.

In the case of `CNCCCOc1ccc2nc(C3=N[C@@H](C(=O)O)CS3)ccc2c1` [MAO-7, 6-(3-methylaminopropoxy)quinolinyl-lucifexin], the RLUmax [2] is reported as 48, the RLUmax [3] is reported as 750 and the “substrate specificity as indicated by the ratio RLUmax/Km” value ([3]; result in words) is reported as “more specific substrate for MAO A”. For the same compound, the “relative light units, FMO 3” value ([4]; [MAO-7] 43 µM) was 8220 RLUs, the “relative light units, net FMO 3” value ([4]; [MAO-7] 43 µM) was 7177 RLUs and the “relative light units, FMO 3” value ([4]; [MAO-7] 86 µM) was 13646 RLUs. For the same compound, the “relative light units, net FMO 3” value ([4]; [MAO-7] 86 µM) was 12061 RLUs, the “relative light units, FMO 3” value ([4]; [MAO-7] 258 µM) was 28987 RLUs and the “relative light units, net FMO 3” value ([4]; [MAO-7] 258 µM) was 25395 RLUs. The “relative light units, FMO 3” value ([4]; [MAO-7] 344 µM) was 34036 RLUs, the “relative light units, net FMO 3” value ([4]; [MAO-7] 344 µM) was 29550 RLUs and the “relative light units, FMO 3” value ([4]; [MAO-7] 516 µM) was 40329 RLUs. The “relative light units, net FMO 3” value ([4]; [MAO-7] 516 µM) was 34192 RLUs, the “relative light units, FMO 3” value ([4]; [MAO-7] 688 µM) was 42707 RLUs and the “relative light units, net FMO 3” value ([4]; [MAO-7] 688 µM) was 35494 RLUs. For the same compound, the Km ([4]; fit of Table 33, CHES pH 9.5) was 200 ± 20 µM, the “relative light units, control” value (luciferase; [MAO-7] 43 µM) was 1043 RLUs and the “relative light units, control” value (luciferase; [MAO-7] 86 µM) was 1585 RLUs. The “relative light units, control” value (luciferase; [MAO-7] 258 µM) was 3592 RLUs, the “relative light units, control” value (luciferase; [MAO-7] 344 µM) was 4486 RLUs and the “relative light units, control” value (luciferase; [MAO-7] 516 µM) was 6137 RLUs. The “relative light units, control” value (luciferase; [MAO-7] 688 µM) was 7213 RLUs.
